Assays:
SMARCA4 = SMARCA4 (Homo sapiens (Human), UniProt P51532); assay: SMARCA4 HiBiT degradation assay in HeLa cells; assay type: cell-based; settings: 18 hours; for DC50: read-out: DC50 (SM4-HeLa) SMARCA4 degradation potency; for Dmax: HeLa, read-out: Dmax % (SM4-HeLa) maximum SMARCA4 degradation within the concentrations tested
Outline: (§1)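 HeLa monoclonal lines carrying a heterozygous HiBiT knock-in on SMARCA2 or SMARCA4 were seeded at 2500 cells/well in EMEM with 10% FBS. After 18 h compound exposure at 37 °C, Nano-Glo HiBiT lytic detection ran 30-60 min at RT before the luminescence read. Values are from curve fits.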

SMARCA2 = SMARCA2 (Homo sapiens (Human), UniProt P51531); assay: SMARCA2 HiBiT degradation assay in HeLa cells; assay type: cell-based; settings: 18 hours; for DC50: read-out: DC50 (SM2-HeLa) SMARCA2 degradation potency; for Dmax: read-out: Dmax % (SM2-HeLa) maximum SMARCA2 degradation within the concentrations tested
Outline: as §1

Chain of SMARCA4 (P51532 whole entry): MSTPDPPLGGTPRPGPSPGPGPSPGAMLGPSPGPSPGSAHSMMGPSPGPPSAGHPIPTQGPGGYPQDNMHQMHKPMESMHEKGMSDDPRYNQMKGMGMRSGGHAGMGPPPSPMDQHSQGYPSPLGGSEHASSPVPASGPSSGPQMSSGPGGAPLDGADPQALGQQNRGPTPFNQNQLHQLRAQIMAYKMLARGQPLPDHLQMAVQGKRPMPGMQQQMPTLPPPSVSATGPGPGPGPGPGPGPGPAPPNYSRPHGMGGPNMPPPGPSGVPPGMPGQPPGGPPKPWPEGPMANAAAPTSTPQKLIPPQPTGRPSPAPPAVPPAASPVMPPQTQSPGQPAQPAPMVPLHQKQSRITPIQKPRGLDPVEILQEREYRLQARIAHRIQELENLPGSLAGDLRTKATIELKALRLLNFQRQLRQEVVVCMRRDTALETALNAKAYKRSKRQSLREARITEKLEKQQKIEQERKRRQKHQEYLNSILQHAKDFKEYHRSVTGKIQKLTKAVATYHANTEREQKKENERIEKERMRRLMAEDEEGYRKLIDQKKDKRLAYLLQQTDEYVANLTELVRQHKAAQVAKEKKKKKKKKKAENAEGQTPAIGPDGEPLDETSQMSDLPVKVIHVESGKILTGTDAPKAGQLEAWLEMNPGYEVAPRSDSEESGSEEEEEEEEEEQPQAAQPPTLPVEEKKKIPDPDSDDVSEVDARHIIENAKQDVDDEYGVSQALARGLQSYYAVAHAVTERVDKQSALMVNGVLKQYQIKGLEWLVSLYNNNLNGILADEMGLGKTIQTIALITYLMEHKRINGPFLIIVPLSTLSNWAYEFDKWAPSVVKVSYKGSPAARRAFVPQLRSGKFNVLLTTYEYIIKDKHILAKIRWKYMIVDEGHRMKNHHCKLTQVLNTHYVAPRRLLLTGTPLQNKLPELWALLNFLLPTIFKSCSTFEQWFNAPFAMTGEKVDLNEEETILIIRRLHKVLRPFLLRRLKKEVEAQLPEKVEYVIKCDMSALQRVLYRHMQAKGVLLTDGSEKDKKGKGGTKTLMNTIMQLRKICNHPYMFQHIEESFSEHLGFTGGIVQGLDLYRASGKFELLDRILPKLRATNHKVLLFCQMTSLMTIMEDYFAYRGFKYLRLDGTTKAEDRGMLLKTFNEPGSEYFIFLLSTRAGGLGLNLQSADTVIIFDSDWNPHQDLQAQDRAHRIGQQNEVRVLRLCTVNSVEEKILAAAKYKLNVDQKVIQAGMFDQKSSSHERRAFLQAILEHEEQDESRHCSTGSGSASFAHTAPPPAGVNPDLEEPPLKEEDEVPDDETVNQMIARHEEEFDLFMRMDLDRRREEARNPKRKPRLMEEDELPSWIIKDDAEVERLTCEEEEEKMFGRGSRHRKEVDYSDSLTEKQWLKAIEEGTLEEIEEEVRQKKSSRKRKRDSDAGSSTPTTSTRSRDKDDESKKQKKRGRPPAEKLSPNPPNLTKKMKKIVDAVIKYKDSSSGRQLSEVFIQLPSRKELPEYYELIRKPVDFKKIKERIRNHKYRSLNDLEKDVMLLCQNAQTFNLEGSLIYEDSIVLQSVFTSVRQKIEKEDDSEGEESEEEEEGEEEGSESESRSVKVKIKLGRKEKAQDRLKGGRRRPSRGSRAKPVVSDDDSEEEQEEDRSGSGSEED
Chain of SMARCA2 (P51531 whole entry): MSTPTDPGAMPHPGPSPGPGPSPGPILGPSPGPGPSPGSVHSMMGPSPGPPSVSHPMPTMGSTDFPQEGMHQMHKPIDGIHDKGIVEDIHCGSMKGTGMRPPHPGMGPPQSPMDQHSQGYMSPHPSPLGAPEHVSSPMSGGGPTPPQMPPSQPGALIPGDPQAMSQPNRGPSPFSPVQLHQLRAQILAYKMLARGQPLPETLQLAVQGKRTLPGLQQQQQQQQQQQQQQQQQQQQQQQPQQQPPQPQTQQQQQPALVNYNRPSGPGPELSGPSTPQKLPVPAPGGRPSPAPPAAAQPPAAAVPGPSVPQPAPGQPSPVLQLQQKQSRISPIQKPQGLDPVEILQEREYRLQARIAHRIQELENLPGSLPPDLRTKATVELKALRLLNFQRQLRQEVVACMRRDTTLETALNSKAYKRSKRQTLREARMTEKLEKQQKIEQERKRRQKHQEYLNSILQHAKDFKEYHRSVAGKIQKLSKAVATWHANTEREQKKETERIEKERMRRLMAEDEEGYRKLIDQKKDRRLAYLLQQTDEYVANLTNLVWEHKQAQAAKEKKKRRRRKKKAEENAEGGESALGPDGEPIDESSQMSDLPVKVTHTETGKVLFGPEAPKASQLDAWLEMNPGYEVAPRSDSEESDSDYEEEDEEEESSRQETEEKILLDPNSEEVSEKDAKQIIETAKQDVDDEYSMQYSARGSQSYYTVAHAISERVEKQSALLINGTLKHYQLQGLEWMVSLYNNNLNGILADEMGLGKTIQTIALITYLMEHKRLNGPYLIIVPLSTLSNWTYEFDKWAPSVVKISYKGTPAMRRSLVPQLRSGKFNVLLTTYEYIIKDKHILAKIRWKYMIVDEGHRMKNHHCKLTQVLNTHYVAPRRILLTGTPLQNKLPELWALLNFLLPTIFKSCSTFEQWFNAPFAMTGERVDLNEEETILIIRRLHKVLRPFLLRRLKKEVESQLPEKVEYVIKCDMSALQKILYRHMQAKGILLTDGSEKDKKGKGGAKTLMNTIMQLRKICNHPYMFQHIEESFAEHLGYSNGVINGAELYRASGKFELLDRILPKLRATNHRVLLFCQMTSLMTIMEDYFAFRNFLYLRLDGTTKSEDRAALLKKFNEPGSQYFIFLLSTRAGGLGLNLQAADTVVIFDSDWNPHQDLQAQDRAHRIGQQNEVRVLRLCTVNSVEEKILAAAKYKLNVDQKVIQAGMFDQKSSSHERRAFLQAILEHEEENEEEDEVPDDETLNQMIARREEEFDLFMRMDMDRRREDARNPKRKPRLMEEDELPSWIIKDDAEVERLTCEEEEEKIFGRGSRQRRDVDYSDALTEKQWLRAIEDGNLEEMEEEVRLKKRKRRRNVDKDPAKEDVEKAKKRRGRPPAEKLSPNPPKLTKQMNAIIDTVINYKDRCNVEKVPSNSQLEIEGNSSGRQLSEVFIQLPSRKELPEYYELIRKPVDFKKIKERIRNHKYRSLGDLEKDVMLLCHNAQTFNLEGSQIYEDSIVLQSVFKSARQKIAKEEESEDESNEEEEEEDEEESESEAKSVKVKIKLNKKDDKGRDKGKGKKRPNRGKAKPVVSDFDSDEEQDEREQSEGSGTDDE

DC50 (SMARCA4) [nM] | Dmax (SMARCA4) [%] | DC50 (SMARCA2) [nM] | Dmax (SMARCA2) [%] | SMILES
< 100 | > 75 | < 100 | > 75 | Cc1ncsc1-c1ccc([C@H](C)NC(=O)[C@@H]2C[C@@H](O)CN2C(=O)[C@@H](c2cc(OCCN3CCC(C(=O)N4CCN5c6cc(-c7ccccc7O)nnc6NC[C@H]5C4)CC3)no2)C(C)C)cc1 [Example 98, (2S,4R)-4-hydroxy-1-((R)-2-(3-(2-(4-((S)-2-(2-hydroxyphenyl)-6,6a,7,8,9,10-hexahydro-5H-pyrazino[1′,2′:4,5]pyrazino[2,3-c]pyridazine-8-carbonyl)piperidin-1-yl)ethoxy)isoxazol-5-yl)-3-methylbutanoyl)-N-((S)-1-(4-(4-methylthiazol-5-yl)phenyl)ethyl)pyrrolidine-2-carboxamide]
< 100 | > 75 | < 100 | > 75 | Cc1ncsc1-c1ccc([C@H](C)NC(=O)[C@@H]2C[C@@H](O)CN2C(=O)[C@@H](c2cc(OCCN3CCC(N(C)C4CCN5c6cc(-c7ccccc7O)nnc6NCC5C4)CC3)no2)C(C)C)cc1 (stereo partly drawn) [Example 99, (2S,4R)-4-hydroxy-1-((2R)-2-(3-(2-(4-((2-(2-hydroxyphenyl)-6,6a,7,8,9,10-hexahydro-5H-pyrido[1′,2′:4,5]pyrazino[2,3-c]pyridazin-8-yl)(methyl)amino)piperidin-1-yl)ethoxy)isoxazol-5-yl)-3-methylbutanoyl)-N-((S)-1-(4-(4-methylthiazol-5-yl)phenyl)ethyl)pyrrolidine-2-carboxamide]
< 100 | > 75 | < 100 | > 75 | Cc1ncsc1-c1ccc([C@H](C)NC(=O)[C@@H]2C[C@@H](O)CN2C(=O)[C@@H](c2cc(O[C@@H](C)CN3CCC(CN4CCN5c6cc(-c7ccccc7O)nnc6NC[C@H]5C4)CC3)no2)C(C)C)cc1 [Example 100, (2S,4R)-4-hydroxy-1-((R)-2-(3-(((S)-1-(4-(((S)-2-(2-hydroxyphenyl)-5,6,6a,7,9,10-hexahydro-8H-pyrazino[1′,2′:4,5]pyrazino[2,3-c]pyridazin-8-yl)methyl)piperidin-1-yl)propan-2-yl)oxy)isoxazol-5-yl)-3-methylbutanoyl)-N-((S)-1-(4-(4-methylthiazol-5-yl)phenyl)ethyl)pyrrolidine-2-carboxamide]
< 100 | > 75 | < 100 | > 75 | Cc1ncsc1-c1ccc([C@H](C)NC(=O)[C@@H]2C[C@@H](O)CN2C(=O)[C@@H](c2cc(OCCN3CCC(CN4C[C@@H]5CNc6nnc(-c7ccccc7O)cc6N5C[C@@H]4C)CC3)no2)C(C)C)cc1 [Example 101, (2S,4R)-4-hydroxy-1-((R)-2-(3-(2-(4-(((6aS,9S)-2-(2-hydroxyphenyl)-9-methyl-5,6,6a,7,9,10-hexahydro-8H-pyrazino[1′,2′:4,5]pyrazino[2,3-c]pyridazin-8-yl)methyl)piperidin-1-yl)ethoxy)isoxazol-5-yl)-3-methylbutanoyl)-N-((S)-1-(4-(4-methylthiazol-5-yl)phenyl)ethyl)pyrrolidine-2-carboxamide]
< 100 | > 75 | < 100 | > 75 | Cc1ncsc1-c1ccc([C@H](C)NC(=O)[C@@H]2C[C@@H](O)CN2C(=O)[C@@H](c2cc(OCCN3CCC(N4C[C@@H]5CNc6nnc(-c7ccccc7O)cc6N5C[C@@H]4C)C3)no2)C(C)C)cc1 (stereo partly drawn) [Example 102, (2S,4R)-4-hydroxy-1-((2R)-2-(3-(2-(3-((6aS,9S)-2-(2-hydroxyphenyl)-9-methyl-5,6,6a,7,9,10-hexahydro-8H-pyrazino[1′,2′:4,5]pyrazino[2,3-c]pyridazin-8-yl)pyrrolidin-1-yl)ethoxy)isoxazol-5-yl)-3-methylbutanoyl)-N-((S)-1-(4-(4-methylthiazol-5-yl)phenyl)ethyl)pyrrolidine-2-carboxamide]

Continued, compound first:

SMILES | DC50 (SMARCA4) [nM] | Dmax (SMARCA4) [%] | DC50 (SMARCA2) [nM] | Dmax (SMARCA2) [%]
Cc1ncsc1-c1ccc([C@H](C)NC(=O)[C@@H]2C[C@@H](O)CN2C(=O)[C@@H](c2cc(OCCN3CC(O)C(N4CCN5c6cc(-c7ccccc7O)nnc6NC[C@H]5C4)C3)no2)C(C)C)cc1 (stereo partly drawn) [Example 93, (2S,4R)-4-hydroxy-1-((2R)-2-(3-(2-(3-hydroxy-4-((S)-2-(2-hydroxyphenyl)-5,6,6a,7,9,10-hexahydro-8H-pyrazino[1′,2′:4,5]pyrazino[2,3-c]pyridazin-8-yl)pyrrolidin-1-yl)ethoxy)isoxazol-5-yl)-3-methylbutanoyl)-N-((S)-1-(4-(4-methylthiazol-5-yl)phenyl)ethyl)pyrrolidine-2-carboxamide] | < 100 | > 75 | < 100 | > 75
Cc1ncsc1-c1ccc([C@H](C)NC(=O)[C@@H]2C[C@@H](O)CN2C(=O)[C@@H](c2cc(OCCN3CCC(N4CCN5c6cc(-c7ccccc7O)nnc6NC[C@H]5C4)C(O)C3)no2)C(C)C)cc1 (stereo partly drawn) [Example 94, (2S,4R)-4-hydroxy-1-((2R)-2-(3-(2-(3-hydroxy-4-((S)-2-(2-hydroxyphenyl)-5,6,6a,7,9,10-hexahydro-8H-pyrazino[1′,2′:4,5]pyrazino[2,3-c]pyridazin-8-yl)piperidin-1-yl)ethoxy)isoxazol-5-yl)-3-methylbutanoyl)-N-((S)-1-(4-(4-methylthiazol-5-yl)phenyl)ethyl)pyrrolidine-2-carboxamide] | < 100 | > 75 | < 100 | > 75
Cc1ncsc1-c1ccc([C@H](C)NC(=O)[C@@H]2C[C@@H](O)CN2C(=O)[C@@H](c2cc(OCCN3CCN4c5cc(-c6ccccc6O)nnc5NC(C)C4C3)no2)C(C)C)cc1 (stereo partly drawn) [Example 95, (2S,4R)-4-hydroxy-1-((2R)-2-(3-(2-(2-(2-hydroxyphenyl)-6-methyl-5,6,6a,7,9,10-hexahydro-8H-pyrazino[1′,2′:4,5]pyrazino[2,3-c]pyridazin-8-yl)ethoxy)isoxazol-5-yl)-3-methylbutanoyl)-N-((S)-1-(4-(4-methylthiazol-5-yl)phenyl)ethyl)pyrrolidine-2-carboxamide] | < 100 | > 75 | < 100 | > 75
Cc1ncsc1-c1ccc([C@H](C)NC(=O)[C@@H]2C[C@@H](O)CN2C(=O)[C@@H](c2cc(OCCN3CCC(N4CCN5c6cc(-c7ccccc7O)nnc6NC(C)C5C4)CC3)no2)C(C)C)cc1 (stereo partly drawn) [Example 96, (2S,4R)-4-hydroxy-1-((2R)-2-(3-(2-(4-(2-(2-hydroxyphenyl)-6-methyl-5,6,6a,7,9,10-hexahydro-8H-pyrazino[1′,2′:4,5]pyrazino[2,3-c]pyridazin-8-yl)piperidin-1-yl)ethoxy)isoxazol-5-yl)-3-methylbutanoyl)-N-((S)-1-(4-(4-methylthiazol-5-yl)phenyl)ethyl)pyrrolidine-2-carboxamide] | < 100 | > 75 | < 100 | > 75
Cc1ncsc1-c1ccc([C@H](C)NC(=O)[C@@H]2C[C@@H](O)CN2C(=O)[C@@H](c2cc(O[C@@H](C)CN3CCC(N4CCN5c6cc(-c7ccccc7O)nnc6NC(C)C5C4)CC3)no2)C(C)C)cc1 (stereo partly drawn) [Example 97, (2S,4R)-4-hydroxy-1-((2R)-2-(3-(((2S)-1-(4-(2-(2-hydroxyphenyl)-6-methyl-5,6,6a,7,9,10-hexahydro-8H-pyrazino[1′,2′:4,5]pyrazino[2,3-c]pyridazin-8-yl)piperidin-1-yl)propan-2-yl)oxy)isoxazol-5-yl)-3-methylbutanoyl)-N-((S)-1-(4-(4-methylthiazol-5-yl)phenyl)ethyl)pyrrolidine-2-carboxamide] | < 100 | > 75 | < 100 | > 75

Reference: US20240018158A1, “BRM TARGETING COMPOUNDS AND ASSOCIATED METHODS OF USE” (Prelude Therapeutics Incorporated, priority 2020, published 2024)
